The results in this text go back to patent US20140148500A1, “PROGRAMMABLE SELF-ASSEMBLED NANOSTRUCTURES BASED ON SIDECHAIN-MODIFIED PNA FOR THE MULTIVALENT DISPLAY OF LIGANDS” (priority 2010, published 2014).

SMILES strings stand for the structures. Where “and” joins values, the source holds several entries; their conditions need not be identical. Identical values can stand only once.

The assay relates to C32 cells. The experiment in a line: Cell adhesion assay, IC50 of multivalent RGD constructs (method of Sipes et al.). The assay is classed as cell-based. The following applies: read-out: IC50 Data (nM), RGD control result in parenthesis, unnormalized, control run alongside the data point it follows. From the text: Multi 1 indicates one PNA construct associated with the DNA. Multi 2 indicates two PNA construct associated with the DNA and so on. […] In the constructs depicted herein, the designator in parentheses (T5, for example) represents the number of thymine bases in the DNA sequence that is inserted to create a spacer between adjacent PNA binding portions of the DNA. T0 represents the absence of any spacer thymine bases. […] “x” indicates no data is available for that experiment. […] Constructs from Example 5 were utilized herein.

As for `N=C(N)NCCC[C@@H]1NC(=O)[C@H](CCCCN)NC(=O)[C@@H](Cc2ccccc2)NC(=O)[C@H](CC(=O)O)NC(=O)CNC1=O` [RGD], the IC50 was 475 nM and 329 nM and 690 nM.
